In paper PMC10208593 (Journal of molecular structure, 2023):
Entries after “also recorded” stand apart in the source; their conditions may differ. Like-named read-outs stand apart in the source and are kept apart here. Values belong to the molecule of their own block, whether it stands above or below them.

Experiments:
[1] = test system: HCT116; assay: SRB cytotoxicity assay, HCT116; assay type: cell-based; settings: Homo sapiens, HCT-116, 72 h, read-out: IC50 (μM) ± S.D. HCT116
[2] = test system: Huh7; assay: SRB cytotoxicity assay, Huh7; assay type: cell-based; settings: Homo sapiens
[3] = test system: MCF-7; assay: SRB cytotoxicity assay, MCF-7; assay type: cell-based; settings: Homo sapiens, MCF7, 72 h, read-out: IC50 (μM) ± S.D. MCF-7
[4] = test system: Huh7, HepG2, Mahlavu and SNU475 cells; assay: Detection of apoptosis by Hoechst 33258 staining; assay type: cell-based, human; settings: 48 h, IC100 concentrations, all four HCC lines
[5] = test system: HepG2; assay: SRB cytotoxicity assay, HepG2; assay type: cell-based; settings: Homo sapiens, HepG2, read-out: IC50 (μM) ± S.D. HepG2
[6] = test system: Huh7; assay: Flow cytometry cell cycle analysis, Huh7; assay type: cell-based, human; settings: propidium iodide; for cell cycle phase arrest, Huh7, higher concentration: 72 h at 10 μM; for cell cycle phase arrest, Huh7: 72 h at IC50 concentration
[7] = test system: Mahlavu; assay: SRB cytotoxicity assay, Mahlavu; assay type: cell-based; settings: Homo sapiens, read-out: IC50 (μM) ± S.D. Mahlavu
[8] = target: tubulin obtained from bovine brains (Bos taurus, UniProt P81947+Q6B856); assay: Inhibition of [3H]colchicine binding to tubulin; settings: for inhibition at 50 µM: read-out: Colchicine binding % inhibition ± SD, 50 μM; for Colchicine binding % inhibition ± SD, 50 μM: 50 μM compound, tubulin 1 μM, [3H]colchicine 5 μM
Sequence of tubulin obtained from bovine brains (Q6B856 whole entry): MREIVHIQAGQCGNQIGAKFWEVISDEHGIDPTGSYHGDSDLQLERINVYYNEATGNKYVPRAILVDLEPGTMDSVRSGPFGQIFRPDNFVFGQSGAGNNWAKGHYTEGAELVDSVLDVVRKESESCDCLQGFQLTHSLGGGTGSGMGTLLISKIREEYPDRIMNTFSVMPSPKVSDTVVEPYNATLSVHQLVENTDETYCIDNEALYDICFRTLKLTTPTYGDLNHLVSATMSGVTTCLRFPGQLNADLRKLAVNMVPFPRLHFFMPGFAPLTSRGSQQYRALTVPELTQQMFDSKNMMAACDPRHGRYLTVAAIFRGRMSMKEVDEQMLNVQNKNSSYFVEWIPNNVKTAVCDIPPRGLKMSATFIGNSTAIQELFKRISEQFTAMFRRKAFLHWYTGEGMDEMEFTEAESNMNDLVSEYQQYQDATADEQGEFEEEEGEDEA
Sequence of tubulin obtained from bovine brains (P81947 whole entry): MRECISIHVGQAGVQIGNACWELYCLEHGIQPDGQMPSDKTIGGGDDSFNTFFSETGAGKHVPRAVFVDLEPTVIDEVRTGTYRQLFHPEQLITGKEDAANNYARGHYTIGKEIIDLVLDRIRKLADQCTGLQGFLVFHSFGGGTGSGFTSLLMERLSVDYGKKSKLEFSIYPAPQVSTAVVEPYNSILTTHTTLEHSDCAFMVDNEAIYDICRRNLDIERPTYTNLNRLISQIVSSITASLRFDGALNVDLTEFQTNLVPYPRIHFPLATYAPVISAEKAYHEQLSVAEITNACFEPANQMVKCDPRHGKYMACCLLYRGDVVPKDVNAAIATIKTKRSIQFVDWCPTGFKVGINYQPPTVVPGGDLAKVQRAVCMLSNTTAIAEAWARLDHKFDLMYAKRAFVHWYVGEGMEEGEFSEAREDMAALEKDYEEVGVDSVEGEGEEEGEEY

[9] = test system: Mahlavu; assay: Flow cytometry cell cycle analysis, Mahlavu; assay type: cell-based, human; settings: propidium iodide; for cell cycle phase arrest, Mahlavu, higher concentration: 72 h at 10 μM; for cell cycle phase arrest, Mahlavu: 72 h at IC50 concentration
[10] = test system: SNU475; assay: SRB cytotoxicity assay, SNU475; assay type: cell-based; settings: Homo sapiens, SNU-475, read-out: IC50 (μM) ± S.D. SNU475
[11] = test system: Mahlavu; assay: Real-time cell monitoring; assay type: cell-based, human; settings: RT-CES, increasing concentrations, 72 h, vs DMSO control
[12] = test system: six cancer cell lines; assay: SRB assay, six cancer cell lines taken together; assay type: cell-based; settings: Homo sapiens, read-out: IC50 range against the six cancer cell lines examined
[13] = Huh-7, 72 h, read-out: IC50 (μM) ± S.D. Huh7
[14] = Huh-7, read-out: IC50 (μM) ± S.D. Huh7 (HCC cell lines)

Compound: O=C(Nc1ccc(Br)cc1)c1cc(-c2c[nH]c3ccccc23)n[nH]1 [Compound 23, N-(4-Bromophenyl)-3-(1H-indol-3-yl)-1H-pyrazole-5-carboxamide]
IC50 [1]: > 50 µM
IC50 [2, 13]: > 50 µM
IC50 [3]: 39.3 ± 1 µM

Compound: CCCCNC(=O)c1cc(-c2c[nH]c3ccccc23)n[nH]1 [Compound 21, N-Butyl-3-(1H-indol-3-yl)-1H-pyrazole-5-carboxamide]
IC50 [1]: 23.1 ± 5.1 µM
IC50 [2, 13]: > 50 µM
IC50 [3]: 26.7 ± 0.5 µM

inhibition at 50 µM [8]: 9.4 ± 2%
Compound: CC(C)(C)c1ccc(NC(=O)c2cc(-c3c[nH]c4ccccc34)n[nH]2)cc1 [Compound 11, N-(4-(tert-Butyl)phenyl)-3-(1H-indol-3-yl)-1H-pyrazole-5-carboxamide]
apoptotic nuclear morphology (Hoechst staining) [4]: visible nuclear blebs or deformed nuclei
IC50 [5]: 2.7 ± 0.9 µM
cell cycle phase arrest, Huh7, higher concentration [6]: arrest in the S phase
cell cycle phase arrest, Huh7 [6]: did not cause a significant change
IC50 [1]: 1.2 ± 0.5 µM
IC50 [7]: 3.4 ± 0.8 µM
IC50 [2, 13]: 0.6 ± 0.4 µM
IC50 [2, 14]: 0.6 ± 0.4 µM
cell cycle phase arrest, Mahlavu, higher concentration [9]: arrest in the S phase
cell cycle phase arrest, Mahlavu [9]: arrest in the S phase
IC50 [3]: 1 ± 0.1 µM
IC50 [10]: 4.3 ± 0.9 µM
real-time cell growth (cell index) inhibition, Mahlavu [11]: dose-dependent growth inhibition

Compound: COc1ccc(NC(=O)c2cc(-c3c[nH]c4ccccc34)n[nH]2)cc1OC [Compound 17, N-(3,4-Dimethoxyphenyl)-3-(1H-indol-3-yl)-1H-pyrazole-5-carboxamide]
IC50 [1]: 10.1 ± 0.7 µM
IC50 [2, 13]: 2.8 ± 1.2 µM
IC50 [3]: 1.7 ± 0.4 µM

Compound: O=C(Nc1ccccc1)c1cc(-c2c[nH]c3ccccc23)n[nH]1 [Compound 14, 3-(1H-Indol-3-yl)-N-phenyl-1H-pyrazole-5-carboxamide]
IC50 [1]: > 50 µM
IC50 [2, 13]: 16.8 ± 3.8 µM
IC50 [3]: 22.2 ± 1.8 µM

Compound: O=C(c1cc(-c2c[nH]c3ccccc23)n[nH]1)N1CCOCC1 [Compound 20, (3-(1H-Indol-3-yl)-1H-pyrazol-5-yl)(morpholino)methanone]
IC50 [1]: > 50 µM
IC50 [2, 13]: > 50 µM
IC50 [3]: > 50 µM

Compound: O=C(c1cc(-c2c[nH]c3ccccc23)n[nH]1)N1CCN(c2ccc(C(F)(F)F)cc2)CC1 [Compound 28, (3-(1H-Indol-3-yl)-1H-pyrazol-5-yl)(4-(4-(trifluoromethyl)phenyl)piperazin-1yl)methanone]
IC50 [1]: 27.6 ± 2.4 µM
IC50 [2, 13]: 16.2 ± 3.2 µM
IC50 [3]: 16.1 ± 1.7 µM

Compound: CSc1ccc(NC(=O)c2cc(-c3c[nH]c4ccccc34)n[nH]2)cc1 [Compound 12, 3-(1H-Indol-3-yl)-N-(4-(methylthio)phenyl)-1H-pyrazole-5-carboxamide]
IC50 [1]: 9 ± 1.9 µM
IC50 [2, 13]: 6.3 ± 1.6 µM
IC50 [3]: 2 ± 0.2 µM

Colchicine binding % inhibition ± SD, 50 μM [8]: Inhibition was observed
inhibition at 50 µM [8]: 26 ± 7%
Compound: COc1cc(NC(=O)c2cc(-c3c[nH]c4ccccc34)n[nH]2)cc(OC)c1OC [Compound 10, 3-(1H-Indol-3-yl)-N-(3,4,5-trimethoxyphenyl)-1H-pyrazole-5-carboxamide]
apoptotic nuclear morphology (Hoechst staining) [4]: visible nuclear blebs or deformed nuclei
IC50 [5]: 2.9 ± 0.1 µM
cell cycle phase arrest, Huh7 [6]: arrest in the G0/G1 phase
IC50 [1]: 2.5 ± 0.3 µM
IC50 [7]: 2.7 ± 0.4 µM
IC50 [2, 13]: 1 ± 0.2 µM
IC50 [2, 14]: 1 ± 0.2 µM
IC50 [3]: 2.1 ± 0.1 µM
IC50 [10]: 4.1 ± 2.1 µM
real-time cell growth (cell index) inhibition, Mahlavu [11]: noticeable inhibition in cell growth in 6 μM concentration

Compound: O=C(c1cc(-c2c[nH]c3ccccc23)n[nH]1)N1CCCCC1 [Compound 19, (3-(1H-Indol-3-yl)-1H-pyrazol-5-yl)(piperidin-1-yl)methanone]
IC50 [1]: 23 ± 3.5 µM
IC50 [2, 13]: 19.1 ± 1.8 µM
IC50 [3]: 21.7 ± 2 µM

Compound: O=C(NC1CCN(Cc2ccccc2)CC1)c1cc(-c2c[nH]c3ccccc23)n[nH]1 [Compound 27, N-(1-Benzylpiperidin-4-yl)-3-(1H-indol-3-yl)-1H-pyrazole-5-carboxamide]
IC50 [1]: 8.9 ± 0.7 µM
IC50 [2, 13]: 6.8 ± 0.7 µM
IC50 [3]: 8.6 ± 0.2 µM

Compound: CNC(=O)c1cc(Oc2ccc(NC(=O)Nc3ccc(Cl)c(C(F)(F)F)c3)cc2)ccn1 [Sorafenib, sorafenib, reference compound]
IC50 [5]: 4.4 ± 0.8 µM
IC50 [1]: 12 ± 0.6 µM
IC50 [7]: 8.3 ± 1 µM
IC50 [2, 13]: 6.5 ± 0.7 µM
IC50 [2, 14]: 6.5 ± 0.7 µM
IC50 [3]: 13.8 ± 1.2 µM
IC50 [10]: 9.6 ± 0.5 µM

Compound: COc1cc(CNC(=O)c2cc(-c3c[nH]c4ccccc34)n[nH]2)cc(OC)c1OC [Compound 13, 3-(1H-Indol-3-yl)-N-(3,4,5-trimethoxybenzyl)-1H-pyrazole-5-carboxamide]
IC50 [1]: 31 ± 2.4 µM
IC50 [2, 13]: 17.2 ± 2.1 µM
IC50 [3]: 17.9 ± 1 µM

Compound: O=C(Nc1ccc(Cl)cc1)c1cc(-c2c[nH]c3ccccc23)n[nH]1 [Compound 22, N-(4-Chlorophenyl)-3-(1H-indol-3-yl)-1H-pyrazole-5-carboxamide]
IC50 [1]: > 50 µM
IC50 [2, 13]: > 50 µM
IC50 [3]: 29.8 ± 3.1 µM

Compound: O=C(NCc1cccnc1)c1cc(-c2c[nH]c3ccccc23)n[nH]1 [Compound 25, 3-(1H-Indol-3-yl)-N-(pyridin-3-ylmethyl)-1H-pyrazole-5-carboxamide]
IC50 [1]: 26.8 ± 2.1 µM
IC50 [2, 13]: 29.1 ± 1 µM
IC50 [3]: 36.5 ± 4 µM

Compound: O=C(NCc1ccccn1)c1cc(-c2c[nH]c3ccccc23)n[nH]1 [Compound 26, 3-(1H-Indol-3-yl)-N-(pyridin-2-ylmethyl)-1H-pyrazole-5-carboxamide]
IC50 [1]: 34 ± 1.1 µM
IC50 [2, 13]: 35.4 ± 1.8 µM
IC50 [3]: > 50 µM

Compound: O=C(c1cc(-c2c[nH]c3ccccc23)n[nH]1)N1CCN(Cc2ccc(C(F)(F)F)cc2)CC1 [Compound 29, (3-(1H-Indol-3-yl)-1H-pyrazol-5-yl)(4-(4-(trifluoromethyl)benzyl)piperazin-1-yl)methanone]
IC50 [1]: 4.1 ± 2 µM
IC50 [2, 13]: 1.7 ± 1.8 µM
IC50 [3]: 3 ± 0.8 µM

IC50 [12]: 0.6 to 3.6 µM
Colchicine binding % inhibition ± SD, 50 μM [8]: Inhibition was observed
inhibition at 50 µM [8]: 23 ± 3%
Compound: COc1ccc(OC)c(NC(=O)c2cc(-c3c[nH]c4ccccc34)n[nH]2)c1 [Compound 18, N-(2,5-Dimethoxyphenyl)-3-(1H-indol-3-yl)-1H-pyrazole-5-carboxamide]
apoptotic nuclear morphology (Hoechst staining) [4]: visible nuclear blebs or deformed nuclei; also recorded: induced apoptotic cell death
IC50 [5]: 1.3 ± 0.09 µM
cell cycle phase arrest, Huh7, higher concentration [6]: cell cycle arrest in the G2/M phase; also recorded: cell cycle arrest at the G2/M phase
cell cycle phase arrest, Huh7 [6]: did not cause a significant change
IC50 [1]: 1.4 ± 0.5 µM
IC50 [7]: 2.9 ± 0.8 µM
IC50 [2, 13]: 0.6 ± 0.1 µM
IC50 [2, 14]: 0.6 ± 0.2 µM
cell cycle phase arrest, Mahlavu, higher concentration [9]: cell cycle arrest in the G2/M phase; also recorded: cell cycle arrest at the G2/M phase
cell cycle phase arrest, Mahlavu [9]: arrest in the G2/M phase
IC50 [3]: 3.6 ± 0.4 µM
IC50 [10]: 2.9 ± 1.13 µM

Compound: COc1cc(NC(=O)c2cc(-c3c[nH]c4ccccc34)n[nH]2)cc(OC)c1 [Compound 16, N-(3,5-Dimethoxyphenyl)-3-(1H-indol-3-yl)-1H-pyrazole-5-carboxamide]
IC50 [1]: 6.2 ± 1 µM
IC50 [2, 13]: 4.5 ± 0.1 µM
IC50 [3]: 2.6 ± 0.5 µM

Compound: O=C(NCc1ccncc1)c1cc(-c2c[nH]c3ccccc23)n[nH]1 [Compound 24, 3-(1H-Indol-3-yl)-N-(pyridin-4-ylmethyl)-1H-pyrazole-5-carboxamide]
IC50 [1]: 33.2 ± 1 µM
IC50 [2, 13]: 30.4 ± 1.4 µM
IC50 [3]: 31.2 ± 2.6 µM

Compound: COc1ccc(NC(=O)c2cc(-c3c[nH]c4ccccc34)n[nH]2)cc1 [Compound 15, 3-(1H-Indol-3-yl)-N-(4-methoxyphenyl)-1H-pyrazole-5-carboxamide]
IC50 [1]: 11.9 ± 1 µM
IC50 [2, 13]: 8.6 ± 2.1 µM
IC50 [3]: 5.5 ± 0.5 µM
